Laboratory results reported in patent US8535897B2, “Assays for non-apoptotic cell death and uses thereof” (The Trustees of Columbia University in the City of New York, priority 2006, dated 2013).
Counter-ions that a name gives are not always drawn.

Legend:
[1] = tested on: BJ-TERT/LT/ST/RAS^V12 cells; experiment: Suppression of erastin lethality by iron chelators (Alamar Blue); format: cell-based, human; settings: 100 μM DFOM, 100 μM 1a, 100 μM 2, 10 μM or 1 μM 311, 24 h
Protocol: BJ-TERT/LT/ST/RAS^V12 cells were treated with erastin and four different iron chelators, desferrioxamine mesylate (DFOM), the compounds 1a and 2 whose structures are shown in FIG. 30, and the compound “311” (311-10 or 311-1) (Green, D. A, et al., Inhibition of Malignant Cell Growth by 311, a novel iron chelator of the pyridoxal isonicotinoyl hydrazone class: Effect on the R2 subunit of ribonucleotide reductase. Clinical Cancer Research, (7): 3574-3579 (2001). Cell killing was measured by Alamar Blue assay.
(a) BJ-TERT/LT/ST/RAS^V12 cells were treated with 9 μM erastin A1 for the indicated length of time, and the number of viable cells determined. (b) 1,000 BJ-TERT/LT/ST/RAS^V12 cells/well in 384-well plates were treated with erastin for 2 d, then alamar blue was added to a final concentration of 10% and the plates were incubated for 16 h. Red fluorescence resulting from reduction of alamar blue was detected on a Victor3 platereader. […] (e) The number of viable cells was quantified under each condition using a hemacytometer. […] BJ-TERT/LT/ST/RAS^V12 (shown in histogram plots, and in line graph as dark diamonds) or BJ-TERT cells (shown in line graph only, light circles) were treated with 4.6-μM erastin A1 and the level of intracellular oxidative species determined. […] ATP levels were measured, viable cells determined by Trypan Blue exclusion and ATP per viable cell determined. […]

BJ-TERT/LT/ST/RASV12 = experiment: Alamar blue viability assay, engineered tumor cells; format: cell-based, human; settings: for selective lethality / activity in cells: BJ-TERT/LT/ST/RAS^V12 cells vs BJ-TERT cells
Protocol: Erastin was tested in a dilution series in five engineered cell lines derived from primary BJ fibroblasts. Cells were incubated with erastin for two days at 37° C. with 5% CO2, Alamar blue was added (10% final volume) and fluorescence measured (530 nm ex, 590 nm em). Cell lines harboring oncogenic RAS (triangles, circles and x's) were sensitive to erastin, but isogenic lines lacking oncogenic RAS (squares and diamonds) were resistant. Two different clones of engineered tumor cells (circles and triangles) responded similarly.
(a) BJ-TERT/LT/ST/RAS^V12 cells were treated with 9 μM erastin A1 for the indicated length of time, and the number of viable cells determined. (b) 1,000 BJ-TERT/LT/ST/RAS^V12 cells/well in 384-well plates were treated with erastin for 2 d, then alamar blue was added to a final concentration of 10% and the plates were incubated for 16 h. Red fluorescence resulting from reduction of alamar blue was detected on a Victor3 platereader. The percent growth inhibition is shown; error bars represent one SD. […] (c) TEM images (20,000× magnification) of BJ-TERT/LT/ST/RAS^V12 mitochondria after cells were treated with nothing, erastin (37 μM for 10 h) or staurosporine (STS, 1 μM for 5 h), and phase-contrast photograph of BJ-TERT/LT/ST/RAS^V12 cells 24 h after 9 μM erastin A1 treatment is also shown to indicate that even after cell death, nuclei are intact. (d) Anti-oxidants suppress erastin-induced death. BJ-TERT/LT/ST/RAS^V12 cells were treated as indicated and photographed. (e) The number of viable cells was quantified under each condition using a hemacytometer. (f) Iron chelators suppress erastin-induced cell death. Cells were seeded in 384-well plates (6,000 cells/well) and treated with 2-fold dilution series of erastin in the presence of 100 μM desferrioxamine mesylate (DFOM), 100 μM of iron chelator 1a, 100 μM of iron chelator 2, 10 μM or 1 μM of iron chelator 311. After 24 h, alamar blue was added and cell viability assayed. (g, h) Erastin-induced formation of oxidative species. BJ-TERT/LT/ST/RAS^V12 (shown in histogram plots, and in line graph as dark diamonds) or BJ-TERT cells (shown in line graph only, light circles) were treated with 4.6-μM erastin A1 and the level of intracellular oxidative species determined. (i, j) STS, but not erastin, induces PARP1 cleavage (red bands at top) in BJ-TERT/LT/ST/RAS^V12 cells and in A673, HT1080 and HeLa cells. NS: non-specific band. […] Cells were treated with STS or erastin, separated into mitochondrial and cytosolic fractions, and probed for cytochrome c (lower red band) and total VDAC (middle green band, pan-VDAC antibody). (1) Caspase-3 is not cleaved in response to erastin. Cells were treated as indicated and probed with an anti-caspase-3 antibody that recognizes both the full length and the cleaved, active form (lower band). […] ATP levels were measured, viable cells determined by Trypan Blue exclusion and ATP per viable cell determined. Abbreviations: DMSO, dimethylsulfoxide; BHT, butylated hydroxytoluene; TOC, alpha-tocopherol; ERA, erastin A1; CAR, beta-carotene; STS, staurosprine.
(a) Calu-1 lung carcinoma cells harboring oncogenic KRAS were infected with lentivirus containing shRNAs targeting KRAS or GFP. Sequences of shRNAs are indicated by starting nucleotide (nt) in the KRAS mRNA coding sequence. Cells were treated with erastin and viability measured by Trypan Blue exclusion. (b) Knockdown of KRAS was confirmed by western blot. (c,d) A673 cells harboring oncogenic BRAF were infected with lentiviral shRNAs targeting BRAF exon 5 (c) or the 5′ UTR (d), luciferase (LUC)(c) or GFP (d). Cells were treated with erastin and viability measured using Alamar Blue (c) and Trypan Blue (d). (e) Knockdown of BRAF was confirmed by western blot. […] BJ-TERT/LT/ST/RAS^V12 cells were treated with erastin alone or in with a MEK inhibitor U0126 (20 μM), MEK inhibitor I (10 μM) or MEK 1/2 inhibitor (50 μM). After 48 h, viability was determined using Trypan Blue. […]

VDAC1, VDAC2 and VDAC3 = experiment: VDAC chemi-proteomic identification (pull-down on immobilized erastin analogs); format: binding, human; settings: BJ-TERT/LT/ST/RAS^V12 cell lysates
Description: Erastin A6, Erastin A3, and erastin B2 were immobilized on solid-phase resins, and proteins that interact with A3 or A6, but not B2 were identified. […] In certain embodiments, wherein BJ-TERT cell lysates were used, a small amount of VDAC1 on the A3 and A6 resins was identified, but none of the VDACs were bound on the B2 resin. Thus, it appears that erastin A3 and A6 more efficiently isolate VDAC2 and VDAC3 compared to erastin B2.
Cultures of BJ-TERT and BJ-TERT/LT/ST/RAS^V12 cells (ten 150 mm plates) were washed with PBS, lysed in 25 mM hydroxyethylpiperazine-N′-2-ethanesulfonic acid (HEPES) pH 7.5, 150 mM NaCl, 1% NP-40, 10 mM MgCl2, 1 mM ethylene-diamine tetra acetate (EDTA), 10% glycerol, 1 mM dithiothreitol (DTT) and protease inhibitor cocktail. Protein concentration was determined using a Bradford colorimetric assay.
Erastin A3 and B2 were dissolved in DMSO at 10 mg/ml. 100 μL of AffiGel-10 was washed and resuspended in 400 μl DMSO. 10 μL of compound and 3 μL of 1:100 dilution of triethylamine in DMSO were added. […] Samples were analyzed using both a 4700 Proteomics Analyzer MALDI-TOF/TOF (TOF/TOF; Applied Biosystems) and a Q Trap (AB/MDS Sciez) and the peptide level data were combined. […]

[2] = tested on: BJ-TERT/LT/ST/RAS^V12 cells; experiment: Suppression of erastin lethality by MEK inhibitors (Trypan Blue); format: cell-based, human; settings: U0126 20 μM, MEK inhibitor I 10 μM, MEK 1/2 inhibitor 50 μM, 48 h
Protocol: BJ-TERT/LT/ST/RASV12 engineered tumor cells were treated with the indicated concentrations of erastin and each MEK1/2 inhibitor for 24 hours and viability was determined by Trypan Blue exclusion.
Cells grown in 175 cm^2 flasks were reseeded in 6-well format (1.4×10^5 cells/well) and treated with erastin dilutions (5-fold, from 36 uM to 60 nM, with no-drug control, n=2) in the presence of one of the MEK inhibitors U0126 (20 uM), MEK inhibitor I (10 uM), MEK 1/2 inhibitor (50 uM), PD98059 (50 uM), MEK inhibitor II (30 uM), or in the absence of inhibitor. After 48 hours, cells were trypsinized and counted using a Vi-CELL™ Series Cell Viability Analyzer. […] Non-linear regression was used to fit curves to the data points using GraphPad Prism™ software. The bottom of each curve was set to zero.

BJELR cells = experiment: Sensitivity after upregulation of VDACs by nucleofection; format: cell-based, human
Description: Quantitative western blot showing the ratio of VDACs (top band, green) to eif4E (bottom band, red) (e). […] Green, untransfected BJELR cells; blue, mock nucleofected BJELR cells; red, VDAC2/3-nucleofected BJELR cells (f).
In certain aspects, the invention provides that erastin acts by a gain-of-function mechanism and that cells with more VDAC proteins are more sensitive to erastin. A gain-of-function mechanism operates in cells which have increased levels of topoisomerase I and are thus more sensitive to camptothecin^149. […] In other embodiments, cell lines can be stably transfected with vectors expressing VDAC1, 2, and/or 3. Thus, increased VDAC expression leads to erastin sensitivity which is consistent with a gain of function mechanism. Furthermore, a knockdown of VDACs causes erastin resistance.

[3] = tested on: BJ-TERT/LT/ST/RAS^V12 cells; experiment: Cell death, viable cells counted using a hemacytometer; format: cell-based, human; settings: 13 μM erastin Al, 23 μM antimycin, 126 μM 2-ME or the combinations

In the case of `O=C(N/N=C/c1c(O)ccc2ccccc12)c1ccncc1` [compound 311], the “effect of iron chelator on erastin lethality” value [1] is reported as “suppress erastin lethality”.

In the case of `CC(C)NC(=O)N(CCN1CCN(C(=O)COc2ccc(Cl)cc2)CC1)Cc1ccc(CN)cc1` [erastin B2], the “selective lethality / activity in cells” value (BJ-TERT/LT/ST/RASV12) is reported as “lacks activity”, the “lethality (no lethality up to)” value (BJ-TERT/LT/ST/RASV12; BJELR cells) is reported as > 50 µM and the “VDAC isoforms identified on the immobilized analog resin” value (VDAC1, VDAC2 and VDAC3) is reported as “only VDAC1”.

With `N#CC(=C(/N)Sc1ccccc1N)/C(C#N)=C(\N)Sc1ccccc1N` [U0126] the “effect of MEK inhibitor on erastin lethality” value (“effect of MEK inhibitor” for short) [2] was “prevent erastin lethality”.

For `COc1cc([C@@H]2c3cc4c(cc3[C@H](O)[C@H]3COC(=O)[C@H]23)OCO4)cc(OC)c1OC` [podophyllotoxin], the “change in sensitivity/potency after upregulation of VDAC proteins by nucleofection” value (BJELR cells) was “did not change the potency”.

`CCOc1ccccc1-n1c(C(C)N2CCN(C(=O)COc3ccc(CN)cc3)CC2)nc2ccccc2c1=O` (stereo not drawn) [erastin A3] was tested, and the “selective lethality / activity in cells” value (BJ-TERT/LT/ST/RASV12) was “retained the ability to kill BJ-TERT/LT/ST/RAS^V12 cells but not BJ-TERT cells” and the “VDAC isoforms identified on the immobilized analog resin” value (VDAC1, VDAC2 and VDAC3) was “all three isoforms of the human mitochondrial voltage-dependent anion channels (VDAC1, VDAC2 and VDAC3) were identified”.

With `COc1cc2c(cc1O)CC[C@@H]1[C@@H]2CC[C@]2(C)[C@@H](O)CC[C@@H]12` [2-ME, 2-methoxyestradiol] the “Cell death (%)” value [3] was 66%.

`N#C/C(=C(/N)Sc1ccccc1N)c1cccc(C(O)c2ccncc2)c1` (stereo not drawn) [MEK inhibitor I] was tested, and the “effect of MEK inhibitor” value [2] was “prevent erastin lethality”.

In the case of `CC(C)NC(=O)N(CCN1CCN(C(=O)COc2ccc(Cl)cc2)CC1)Cc1ccc(F)cc1` [erastin B1], the “selective lethality / activity in cells” value (BJ-TERT/LT/ST/RASV12) is reported as “inactive”.

For `CCOc1ccccc1-n1c(C(C)N2CCN(C(=O)COc3ccc(CN)cc3)CC2)nc2ccccc2c1=O` (stereo not drawn) [erastin A6], the “selective lethality / activity in cells” value (BJ-TERT/LT/ST/RASV12; listed as ERA-A6) was “selectively lethal to RASV12-expressing cells” and the “VDAC isoforms identified on the immobilized analog resin” value (VDAC1, VDAC2 and VDAC3) was “all three isoforms of the human mitochondrial voltage-dependent anion channels (VDAC1, VDAC2 and VDAC3) were identified”.

In the case of `CCOc1ccccc1-n1c(C(C)N2CCN(C(C)=O)CC2)nc2ccccc2c1=O` (stereo not drawn) [erastin A8], the “selective lethality / activity in cells” value (BJ-TERT/LT/ST/RASV12) is reported as “inactive”.

For `N#CC(=C(N)Sc1ccc(N)cc1)c1ccccc1C(F)(F)F` [MEK 1/2 inhibitor], the “effect of MEK inhibitor” value [2] was “prevent erastin lethality”.

With `CCOc1ccccc1-n1c(C(C)N2CCN(C(=O)COc3ccc(Cl)cc3)CC2)nc2cc(NC(C)=O)ccc2c1=O` (stereo not drawn) [erastin A9] the IC50 (BJ-TERT/LT/ST/RASV12; BJELR (BJ-TERT/LT/ST/RAS^V12) cells) was 1.9 µM.

With `CC(=O)N(O)CCCCCNC(=O)CCC(=O)N(O)CCCCCNC(=O)CCC(=O)N(O)CCCCCN` [desferrioxamine mesylate] the “effect of iron chelator on erastin lethality” value [1] was “suppress erastin lethality”.

For antimycin, the “Cell death (%)” value [3] was 51%.
